Experimental findings from US5677419A, “Cyclic vasoactive peptide analogs” (Hoffmann-La Roche Inc., priority 1994, dated 1997) are described below.

In assay [1] the test system is guinea pigs. In words: In vivo bronchodilator activity by tracheal instillation against histamine challenge. Details: species or system guinea pig. Conditions: anesthetized male guinea pigs, inhibition of histamine (i.v.)-induced rise in tracheal pressure. As to the method: The in vivo bronchodilator activity of VIP and VIP analogs in guinea pigs was assessed by the tracheal instillation route of administration. This technique utilized male guinea pigs (Hartley strain, Charles River) weighing 400-600 g. Animals were anesthetized with urethane (2 g/kg) intraperitoneally and a polyethylene cannula was inserted into the jugular vein for intraveneous drug administration.
The animals were tracheotomized and dosing solutions of distilled water or test compound dissolved in distilled water were administered into the trachea, approximately three-quarters the distance to the carina with a pipette. The concentration of the dosing solution was adjusted to deliver a constant volume of […]. The animals were placed supine for one minute to aid drug delivery to the lung. One minute later, spontaneous breathing was arrested with succinylcholine chloride (1.2 mg/kg) administered intraveneously, and the animals were ventilated with a HARVARD Model 680 small animal respirator set at 40 breaths/min and 4.0 cm^3 stroke volume. The animals were challenged with a maximal constrictory dose of histamine ([…], i.v.) and tracheal pressure (cm of water) was recorded from a STATHAM pressure transducer (P 32 AA).
The change in tracheal pressure was averaged for at least 3 control and 3 drug-treated animals and percent inhibition was calculated. The relative potency of compounds administered by the instillation route was determined by administering various doses of test compound and calculating the median effective dose (ED50 value). The ED50 was determined from log dose-response curves generated by at least 3 doses that caused inhibitory effects between 10% and 90%. The correlation coefficients for the regression line of each compound was always greater than 0.95.
For determination of the time course of inhibition for various compounds, the time between administration of compound and challenge with histamine was varied. The time course of activity was calculated as the time when inhibition decreased to 40%.
The results summarized in Table II show the in vivo bronchodilator activity of the VIP analogs in comparison to native VIP.

In assay [2] the test system is guinea pig tracheal smooth muscle. The experiment in a line: Tracheal relaxant activity of VIP analogs on isolated guinea pig tracheal rings. It counts as cell-based. The conditions noted are these: cumulative concentration response, relaxation as % of maximum response to VIP (10^-6 M=100%), three tissues pooled, linear regression. As to the method:
The relaxant activity of the VIP analogs were studied in a model utilizing guinea pig trachea. [Wasserman, M. A. et al., in Vasoactive Intestinal Peptide, S. I. Said, ed., Raven Press, New York 1982, pp 177-184] All tissues were taken from male albino guinea pig weighing 400-600 g, anesthetized with urethane (2 g/kg, i.p.). After exanguination, the trachea were removed and divided into four ring segments (3 mm length). Each ring was suspended by 30 gauge stainless steel wires in a 10 mL jacketed tissue bath and attached via 4-0 silk thread to a GRASS force displacement transducer (model FT03C, Grass Instruments Co., Quincy, Mass.), for isometric recording of tension. The smooth muscle was bathed in modified Krebs solution of the following composition: NaCl, 120 mM; KCl, 4.7 mM; CaCl2, 2.5 mM; MgSO4.7H2 O, 1.2 mM; NaHCO3, 25 mM; K2 HPO4 monobasic, 1.2 mM; and dextrose, 10 mM. Tissue baths were maintained at 37° C. and constantly bubbled with 95% O2 and 5% CO2. Responses were recorded on an 8 channel and a 4 channel HEWLETT-PACKARD (model 7702B and 7754A, respectively) recorder (Hewlett- Packard, Paramus, N.J.). Tracheal rings were placed under a resting tension of 1.5 g which was determined to be at or near optimal in preliminary experiments. Frequent readjustments of tension were required during the 60 minute stabilization period which followed. Tissues were rinsed at 15 minute intervals.
Cumulative concentration response curves were obtained for each tissue by successive […] increases in the bath concentration of VIP or VIP analogs according to the method of VanRossum [Arch. Int. Pharmacodyn., 143, 299-330 (1963)]. Only one cumulative dose response curve was obtained on a single tissue. To minimize variability between tissues, relaxant responses were expressed as a percentage of the maximum response obtained to VIP (10^-6 M=100%) added at the end of each concentration response experiment. Responses obtained from three tissues were pooled and EC50 values were determined by linear regression.
The results summarized in Table I show the tracheal relaxant activity of the VIP analogs in comparison to native VIP.

Structures are written as SMILES. Where a SMILES comes first, the peptide text is derived from it. Bridges are numbered along the chain shown (N, C = ends). [ ]: non-standard residue; d: D form. Phe(4-F) = N[C@@H](Cc1ccc(F)cc1)C(=O)O; 2Nal = N[C@@H](Cc1ccc2ccccc2c1)C(=O)O; Nle = CCCC[C@H](N)C(=O)O; Orn = NCCC[C@H](N)C(=O)O

A word on the EC50: it is the concentration that produces a half-maximal response. A higher EC50 goes with weaker potency. As for `CCCC[C@H](NC(=O)[C@@H]1CCC(=O)NCCCC[C@H](NC(=O)[C@@H](NC(=O)[C@H](Cc2ccc(O)cc2)NC(=O)[C@H](CC(N)=O)NC(=O)[C@H](CC(=O)O)NC(=O)[C@@H](NC(=O)[C@H](Cc2ccccc2)NC(=O)[C@@H](NC(=O)[C@H](C)NC(=O)[C@H](CC(=O)O)NC(=O)[C@H](CO)NC(=O)[C@H](Cc2c[nH]cn2)NC(C)=O)C(C)C)[C@@H](C)O)[C@@H](C)O)C(=O)N[C@@H](CC(C)C)C(=O)N[C@@H](CCCNC(=N)N)C(=O)N[C@@H](CCCCN)C(=O)N1)C(=O)N[C@@H](C)C(=O)N[C@H](C(=O)N[C@@H](CCCCN)C(=O)N[C@@H](CCCCN)C(=O)N[C@@H](Cc1ccc(O)cc1)C(=O)N[C@@H](CC(C)C)C(=O)N[C@@H](CC(N)=O)C(=O)N[C@@H](CO)C(=O)N[C@H](C(=O)N[C@@H](CC(C)C)C(=O)N[C@H](C(N)=O)[C@@H](C)O)C(C)C)C(C)C` [SEQ ID NO:26, Ac-[Lys^12,Glu^16,Nle^17,Val^26,Thr^28]-VIP cyclo (Lys^12 →Glu^16)] (Ac-HSDAVFTDNYTKLRKE[Nle]AVKKYLNSVLT-NH2; lactam 12-16), the “Bronchodilator activity of VIP analogs in guinea pigs, ED50” value (shortened to “Bronchodilator activity of VIP analogs”) in assay [1] was 39 μg. In assay [2], this molecule showed an EC50 of 37 nM.

Regarding `CCCC[C@H](NC(=O)[C@H](CCC(N)=O)NC(=O)[C@H](CCCCN)NC(=O)[C@H](CCCNC(=N)N)NC(=O)[C@H](CC(C)C)NC(=O)[C@H](CCCCN)NC(=O)[C@@H](NC(=O)[C@H](Cc1ccc(O)cc1)NC(=O)[C@H](CC(N)=O)NC(=O)[C@H](CC(=O)O)NC(=O)[C@@H](NC(=O)[C@H](Cc1ccccc1)NC(=O)[C@@H](NC(=O)[C@H](C)NC(=O)[C@H](CC(=O)O)NC(=O)[C@H](CO)NC(=O)[C@H](Cc1c[nH]cn1)NC(C)=O)C(C)C)[C@@H](C)O)[C@@H](C)O)C(=O)N[C@@H](C)C(=O)N[C@H](C(=O)N[C@H]1CCCCNC(=O)C[C@@H](C(=O)N[C@@H](CO)C(=O)N[C@H](C(=O)N[C@@H](CC(C)C)C(=O)N[C@H](C(N)=O)[C@@H](C)O)C(C)C)NC(=O)[C@H](CC(C)C)NC(=O)[C@H](Cc2ccc(O)cc2)NC(=O)[C@H](CCCCN)NC1=O)C(C)C` [SEQ ID NO:27, Ac-[Lys^12,Nle^17,Asp^24,Val^26,Thr^28]-VIP cyclo (Lys^20 →Asp^24)] (Ac-HSDAVFTDNYTKLRKQ[Nle]AVKKYLDSVLT-NH2; lactam 20-24), in assay [1], the “Bronchodilator activity of VIP analogs” value is listed as 2.3 μg. Besides, in assay [2], the 50% effective concentration (EC50) amounted to 5.3 nM.

Take `CCCC[C@H](NC(=O)[C@H](CCC(N)=O)NC(=O)[C@H](CCCCN)NC(=O)[C@H](CCCNC(=N)N)NC(=O)[C@H](CC(C)C)NC(=O)[C@H](CCCCN)NC(=O)[C@@H](NC(=O)[C@H](Cc1ccc(O)cc1)NC(=O)[C@H](CC(N)=O)NC(=O)[C@H](CC(=O)O)NC(=O)[C@@H](NC(=O)[C@H](Cc1ccccc1)NC(=O)[C@@H](NC(=O)[C@H](C)NC(=O)[C@H](CC(=O)O)NC(=O)[C@H](CO)NC(=O)[C@H](Cc1c[nH]cn1)NC(C)=O)C(C)C)[C@@H](C)O)[C@@H](C)O)C(=O)N[C@@H](C)C(=O)N[C@H](C(=O)N[C@@H](CCCCN)C(=O)N[C@H]1CCCCNC(=O)C[C@@H](C(=O)N[C@H](C(=O)N[C@@H](CC(C)C)C(=O)N[C@H](C(N)=O)[C@@H](C)O)C(C)C)NC(=O)[C@H](CC(N)=O)NC(=O)[C@H](CC(C)C)NC(=O)[C@H](Cc2ccc(O)cc2)NC1=O)C(C)C` [SEQ ID NO:28, Ac-[Lys^12,Nle^17,Asp^25,Val^26,Thr^28]-VIP cyclo (Lys^21 →Asp^25)] (Ac-HSDAVFTDNYTKLRKQ[Nle]AVKKYLNDVLT-NH2; lactam 21-25): the “Bronchodilator activity of VIP analogs” value in assay [1] stood at 1.2 μg. This molecule also had a concentration giving a half-maximal response (EC50) in assay [2] of 3.1 nM.

`CCCC[C@H](NC(=O)[C@H](CCC(N)=O)NC(=O)[C@H](CCCCN)NC(=O)[C@H](CCCNC(=N)N)NC(=O)[C@H](CC(C)C)NC(=O)[C@H](CCCCN)NC(=O)[C@@H](NC(=O)[C@H](Cc1ccc(O)cc1)NC(=O)[C@H](CC(N)=O)NC(=O)[C@H](CC(=O)O)NC(=O)[C@@H](NC(=O)[C@H](Cc1ccccc1)NC(=O)[C@@H](NC(=O)[C@H](C)NC(=O)[C@H](CC(=O)O)NC(=O)[C@H](CO)NC(=O)[C@H](Cc1c[nH]cn1)NC(C)=O)C(C)C)[C@@H](C)O)[C@@H](C)O)C(=O)N[C@@H](C)C(=O)N[C@@H](C)C(=O)N[C@@H](CCCCN)C(=O)N[C@H]1CCCCNC(=O)C[C@@H](C(=O)N[C@H](C(=O)N[C@@H](CC(C)C)C(=O)N[C@H](C(N)=O)[C@@H](C)O)C(C)C)NC(=O)[C@H](CC(N)=O)NC(=O)[C@H](CC(C)C)NC(=O)[C@H](Cc2ccc(O)cc2)NC1=O` [SEQ ID NO:29, Ac-[Lys^12,Nle^17,Ala^19,Asp^25,Val^26,Thr^28]-VIP cyclo (Lys^21 →Asp^25)] (Ac-HSDAVFTDNYTKLRKQ[Nle]AAKKYLNDVLT-NH2; lactam 21-25): the “Bronchodilator activity of VIP analogs” value in assay [1] was 0.34 μg. The EC50 in assay [2] stood at 0.7 nM.

In the case of `CCCC[C@H](NC(=O)[C@H](CCC(N)=O)NC(=O)[C@H](CCCCN)NC(=O)[C@H](CCCNC(=N)N)NC(=O)[C@H](CC(C)C)NC(=O)[C@H](CCCCN)NC(=O)[C@@H](NC(=O)[C@H](Cc1ccc2ccccc2c1)NC(=O)[C@H](CC(N)=O)NC(=O)[C@H](CC(=O)O)NC(=O)[C@@H](NC(=O)[C@H](Cc1ccc(F)cc1)NC(=O)[C@@H](NC(=O)[C@H](C)NC(=O)[C@H](CC(=O)O)NC(=O)[C@H](CO)NC(=O)[C@H](Cc1c[nH]cn1)NC(C)=O)C(C)C)[C@@H](C)O)[C@@H](C)O)C(=O)N[C@@H](C)C(=O)N[C@H](C(=O)N[C@@H](CCCCN)C(=O)N[C@H]1CCCCNC(=O)C[C@@H](C(=O)N[C@H](C(=O)N[C@@H](CC(C)C)C(=O)N[C@H](C(=O)NCC(=O)NCC(=O)N[C@@H](CCSC)C(N)=O)[C@@H](C)O)C(C)C)NC(=O)[C@H](CC(N)=O)NC(=O)[C@H](CC(C)C)NC(=O)[C@H](Cc2ccc(O)cc2)NC1=O)C(C)C` [SEQ ID NO:30, Ac-[p-F-Phe^6,2-Nal^10,Lys^12,Nle^17,Asp^25,Val^26,Thr^28,Gly^29,30,Met^31]-VIP (1-31)-NH2 cyclo (Lys^21 →Asp^25)] (Ac-HSDAV[Phe(4-F)]TDN[2Nal]TKLRKQ[Nle]AVKKYLNDVLTGGM-NH2; lactam 21-25), the “Bronchodilator activity of VIP analogs” value in assay [1] is recorded as 0.90 μg. This molecule also had an EC50 in assay [2] of 1.3 nM.

`CCCC[C@H](NC(=O)[C@H](CCC(N)=O)NC(=O)[C@H](CCCCN)NC(=O)[C@H](CCCNC(=N)N)NC(=O)[C@H](CC(C)C)NC(=O)[C@H](CCCN)NC(=O)[C@@H](NC(=O)[C@H](Cc1ccc(O)cc1)NC(=O)[C@H](CC(N)=O)NC(=O)[C@H](CCC(=O)O)NC(=O)[C@@H](NC(=O)[C@H](Cc1ccccc1)NC(=O)[C@@H](NC(=O)[C@H](C)NC(=O)[C@H](CC(=O)O)NC(=O)[C@H](CO)NC(=O)[C@H](Cc1c[nH]cn1)NC(C)=O)C(C)C)[C@@H](C)O)[C@@H](C)O)C(=O)N[C@@H](C)C(=O)N[C@H](C(=O)N[C@@H](CCCCN)C(=O)N[C@H]1CCCCNC(=O)C[C@@H](C(=O)N[C@H](C(=O)N[C@@H](CC(C)C)C(=O)N[C@H](C(N)=O)[C@@H](C)O)C(C)C)NC(=O)[C@H](CC(N)=O)NC(=O)[C@H](CC(C)C)NC(=O)[C@H](Cc2ccc(O)cc2)NC1=O)C(C)C` [SEQ ID NO:31, Ac-[Glu^8,Orn^12,Nle^17,Asp^25,Val^26,Thr^28]-VIP cyclo (Lys^21 →Asp^25)] (Ac-HSDAVFTENYT[Orn]LRKQ[Nle]AVKKYLNDVLT-NH2; lactam 21-25): the “Bronchodilator activity of VIP analogs” value in assay [1] was determined as 0.19 μg. In assay [2], this molecule registered an EC50 of 2.2 nM.
